The record followed here is patent publication US10669300B2, “Methods of separating gemcitabine-phosphate diastereoisomers” (NuCana plc, priority 2014, dated 2020).

Data set [1] in a line: Solubility in mixtures of polar organic solvents with water. The format is physicochemical. The text has this:
It has recently been discovered that the (S)-epimer 3 of gemcitabine-[phenyl-benzoxy-L-alaninyl)]-phosphate has sufficient solubility in mixtures of a number of polar organic solvents with water to render it suitable for formulation and administration as a therapeutic agent. […] In certain solvent mixtures the difference in solubility between the (S)-epimer and the (R)-epimer is over 100 fold. It is expected therefore that more clinically effective, practical and patient friendly administration methods can be developed using the (S)-epimer than can be developed using the (R)-epimer or using the mixture. It is thus desirable to be able to provide gemcitabine-[phenyl-benzoxy-L-alaninyl)]-(S)-phosphate 3 in substantially diastereoisomerically pure form.

A short description of data set [2]: Solvent screening: amounts of the two epimers in solution after slurrying NUC-1031 mixture. The data set is classed as physicochemical. Particulars: for epimer in solution: 33:67 (R):(S) mixture in 1 mL, stirred overnight. How it is done: First a solvent screening was conducted with 17 different solvents (see Table 1). Approximately 25 mg of a diastereomeric mixture (33:67 (R):(S)) of NUC-1031 was suspended in the listed solvents (1 mL) and stirred overnight. In case dissolution occurred more solid was added. The suspensions were sedimented and the relative amounts of the two diastereoisomers in solution was determined by HPLC.

Data set [3] can be described thus: Crystallisation optimisation: slurries in acetonitrile and isopropanol, epimers in solution. The data set is classed as physicochemical. Particulars: 20° C., 200 mg 33:67 (R):(S) mixture. How it is done:
The enrichment provided by acetonitrile and isopropanol were evaluated at a range of concentrations and temperatures (see Table 2). Two types of experiments were conducted: simple slurries (20° C.) in different volumes and slurries/recrystallisations at 80° C. For the experiments 200 mg of the diastereomeric mixture (33:67 (R):(S)) was suspended in the solvents and volume indicated below and optionally heated to reflux and cooled to 20° C. The suspensions were stirred overnight and isolated. The relative proportions of the two epimers present in both the solution and in the solid cake were determined by HPLC.

Experiment in data set [4]: as above
Particulars: 83° C. (heated to reflux, cooled to 20° C.), 200 mg 33:67 (R):(S) mixture. The data set is classed as physicochemical.

The subject of data set [5] is isolated human hepatic cells. The data set can be described thus: Half-life on incubation with isolated human hepatic cells. The format is in vitro ADME. From the text:
The longer half-life associated with (R)-isomer indicates a lower intrinsic clearance and should result in a different pharmacokinetic and pharmacodynamic profile to the (S)-isomer which may offer some benefits.

A short description of a further data set: Solubility in water. The data set is classed as physicochemical. Particulars: regardless of salt content or pH. From the text:
It also has implications for the development of efficient manufacturing processes which will allow NUC-1031 to be produced cost effectively.

With `C[C@H](N[P@@](=O)(OC[C@H]1O[C@@H](n2ccc(N)nc2=O)C(F)(F)C1O)Oc1ccccc1)C(=O)OCc1ccccc1` (single isomer, unassigned; epimer 2) [(R)-epimer], the “solubility compared with the (S)-epimer” value in data set [1] (mixtures of polar organic solvents with water) was “considerably lower”. The epimer in solution in data set [2] (solvent ACN) is 1.1 mg/mL; in data set [2] (solvent EtOAc), 0.7 mg/mL; in data set [2] (solvent EtOH), 4.9 mg/mL; in data set [2] (solvent H2O), 0.5 mg/mL; in data set [2] (solvent IPA) it was 1.6 mg/mL; in data set [2] (solvent MEK), 0.9 mg/mL. Also, the epimer in solution in data set [2] (solvent MIBK) was determined as 0.7 mg/mL; in data set [2] (solvent MeOH), 22.8 mg/mL; in data set [2] (solvent MeTHF) it was 0.6 mg/mL; in data set [2] (solvent TBME), 0.1 mg/mL; in data set [2] (solvent THF), 3.0 mg/mL; in data set [2] (solvent acetone), 2.2 mg/mL. The epimer in solution amounted to 0.6 mg/mL in data set [2] (solvent iPrOAc); 1.6 mg/mL in data set [2] (solvent nBuOH); 2.2 mg/mL in data set [2] (solvent nPrOH); 0.4 mg/mL in data set [2] (solvent nheptane); 0.2 mg/mL in data set [2] (solvent toluene); 0.67 mg/mL in data set [3] (ACN solution, 5 mL). The epimer in solution was found to be 0.59 mg/mL in data set [3] (ACN solution, 10 mL); 0.63 mg/mL in data set [3] (ACN solution, 15 mL); 0.77 mg/mL in data set [3] (IPA solution, 5 mL); 0.77 mg/mL in data set [3] (IPA solution, 10 mL); 0.58 mg/mL in data set [3] (IPA solution, 15 mL); 1.01 mg/mL in data set [4] (ACN solution, 5 mL). The epimer in solution in data set [4] (ACN solution, 10 mL) worked out at 1.09 mg/mL; in data set [4] (ACN solution, 15 mL), 1.19 mg/mL; in data set [4] (IPA solution, 5 mL), 1.42 mg/mL; in data set [4] (IPA solution, 10 mL), 3.38 mg/mL. In data set [5], the “half-life relative to that of the (S)-epimer” value was “four times”.

In the case of `C[C@H](N[P@](=O)(OC[C@H]1O[C@@H](n2ccc(N)nc2=O)C(F)(F)C1O)Oc1ccccc1)C(=O)OCc1ccccc1` (single isomer, unassigned; epimer 2) [(S)-epimer], the “difference in solubility between the (S)-epimer and the (R)-epimer” value in data set [1] (in certain solvent mixtures) is given as “over 100 fold”. In data set [2] (in all solvents tested), the “solubility compared with the (R)-epimer” value is listed as “higher solubility”. In addition, the epimer in solution in data set [2] (solvent ACN) was determined as 10.0 mg/mL; in data set [2] (solvent EtOAc) it was 1.1 mg/mL; in data set [2] (solvent EtOH), 15.7 mg/mL; in data set [2] (solvent H2O) it was 0.9 mg/mL; in data set [2] (solvent IPA), 13.0 mg/mL; in data set [2] (solvent MEK), 3.2 mg/mL. The epimer in solution in data set [2] (solvent MIBK) was 1.0 mg/mL; in data set [2] (solvent MeOH) it was 35.1 mg/mL; in data set [2] (solvent MeTHF), 1.2 mg/mL; in data set [2] (solvent TBME) it was 0.1 mg/mL; in data set [2] (solvent THF), 6.6 mg/mL; in data set [2] (solvent acetone), 7.7 mg/mL. Further, the epimer in solution was found to be 0.6 mg/mL in data set [2] (solvent iPrOAc); 14.4 mg/mL in data set [2] (solvent nBuOH); 10.8 mg/mL in data set [2] (solvent nPrOH); 0.4 mg/mL in data set [2] (solvent nheptane); 0.7 mg/mL in data set [2] (solvent toluene); 9.04 mg/mL in data set [3] (ACN solution, 5 mL). The epimer in solution in data set [3] (ACN solution, 10 mL) came to 8.85 mg/mL; in data set [3] (ACN solution, 15 mL) it was 9.74 mg/mL; in data set [3] (IPA solution, 5 mL), 17.75 mg/mL; in data set [3] (IPA solution, 10 mL), 12.98 mg/mL; in data set [3] (IPA solution, 15 mL), 7.16 mg/mL; in data set [4] (ACN solution, 5 mL), 11.03 mg/mL. Besides, the epimer in solution is 11.00 mg/mL in data set [4] (ACN solution, 10 mL); 10.67 mg/mL in data set [4] (ACN solution, 15 mL); 18.20 mg/mL in data set [4] (IPA solution, 5 mL); 12.83 mg/mL in data set [4] (IPA solution, 10 mL).

With `C[C@H](NP(=O)(OC[C@H]1O[C@@H](n2ccc(N)nc2=O)C(F)(F)C1O)Oc1ccccc1)C(=O)OCc1ccccc1` (stereo partly shown) [NUC-1031], in “Solubility in water”, the solubility in water result is “essentially insoluble in water”.
